Source: EP4620959A1, “CYCLIC COMPOUNDS USED AS MULTI-TARGET KINASE INHIBITORS AND PREPARATION METHOD THEREFOR” (Shanghai Institute of Organic Chemistry, Chinese Academy of …, priority 2022, dated 2024)

Columns and labels:
LRRK2 G2019S = LRRK2 G2019S (Homo sapiens, UniProt Q5S007, G2019S); assay: Kinase activity inhibition assay (ADP-Glo), LRRK2 G2019S; type: biochemical; conditions: for inhibition at 0.1 µM: read-out: LRRK2 G2019S inhibition rate at 100 nM, ATP 100 µM, compound at 100 nM
Method: (§1) The kinase activity inhibition assay was performed by ICE Bioscience (Beijing) using ADP-Glo and HTRF methods.
(§2) Table 1.1-1 ADP-Glo Buffer
(§3) Table 1.2-1 ADP-Glo Kinase and Substrate Formulation
(§4) SD is the standard error, and AVE is the average value. Table 2-1 LRRK2 Activity Inhibition Test Results

LRRK2 wt = LRRK2 wt (Homo sapiens, UniProt Q5S007); assay: Kinase activity inhibition assay (ADP-Glo), LRRK2 wt; type: biochemical; conditions: for inhibition at 0.1 µM: read-out: LRRK2 wt inhibition rate at 100 nM, ATP 20 µM, compound at 100 nM
Chain of LRRK2 wt (Q5S007 whole entry): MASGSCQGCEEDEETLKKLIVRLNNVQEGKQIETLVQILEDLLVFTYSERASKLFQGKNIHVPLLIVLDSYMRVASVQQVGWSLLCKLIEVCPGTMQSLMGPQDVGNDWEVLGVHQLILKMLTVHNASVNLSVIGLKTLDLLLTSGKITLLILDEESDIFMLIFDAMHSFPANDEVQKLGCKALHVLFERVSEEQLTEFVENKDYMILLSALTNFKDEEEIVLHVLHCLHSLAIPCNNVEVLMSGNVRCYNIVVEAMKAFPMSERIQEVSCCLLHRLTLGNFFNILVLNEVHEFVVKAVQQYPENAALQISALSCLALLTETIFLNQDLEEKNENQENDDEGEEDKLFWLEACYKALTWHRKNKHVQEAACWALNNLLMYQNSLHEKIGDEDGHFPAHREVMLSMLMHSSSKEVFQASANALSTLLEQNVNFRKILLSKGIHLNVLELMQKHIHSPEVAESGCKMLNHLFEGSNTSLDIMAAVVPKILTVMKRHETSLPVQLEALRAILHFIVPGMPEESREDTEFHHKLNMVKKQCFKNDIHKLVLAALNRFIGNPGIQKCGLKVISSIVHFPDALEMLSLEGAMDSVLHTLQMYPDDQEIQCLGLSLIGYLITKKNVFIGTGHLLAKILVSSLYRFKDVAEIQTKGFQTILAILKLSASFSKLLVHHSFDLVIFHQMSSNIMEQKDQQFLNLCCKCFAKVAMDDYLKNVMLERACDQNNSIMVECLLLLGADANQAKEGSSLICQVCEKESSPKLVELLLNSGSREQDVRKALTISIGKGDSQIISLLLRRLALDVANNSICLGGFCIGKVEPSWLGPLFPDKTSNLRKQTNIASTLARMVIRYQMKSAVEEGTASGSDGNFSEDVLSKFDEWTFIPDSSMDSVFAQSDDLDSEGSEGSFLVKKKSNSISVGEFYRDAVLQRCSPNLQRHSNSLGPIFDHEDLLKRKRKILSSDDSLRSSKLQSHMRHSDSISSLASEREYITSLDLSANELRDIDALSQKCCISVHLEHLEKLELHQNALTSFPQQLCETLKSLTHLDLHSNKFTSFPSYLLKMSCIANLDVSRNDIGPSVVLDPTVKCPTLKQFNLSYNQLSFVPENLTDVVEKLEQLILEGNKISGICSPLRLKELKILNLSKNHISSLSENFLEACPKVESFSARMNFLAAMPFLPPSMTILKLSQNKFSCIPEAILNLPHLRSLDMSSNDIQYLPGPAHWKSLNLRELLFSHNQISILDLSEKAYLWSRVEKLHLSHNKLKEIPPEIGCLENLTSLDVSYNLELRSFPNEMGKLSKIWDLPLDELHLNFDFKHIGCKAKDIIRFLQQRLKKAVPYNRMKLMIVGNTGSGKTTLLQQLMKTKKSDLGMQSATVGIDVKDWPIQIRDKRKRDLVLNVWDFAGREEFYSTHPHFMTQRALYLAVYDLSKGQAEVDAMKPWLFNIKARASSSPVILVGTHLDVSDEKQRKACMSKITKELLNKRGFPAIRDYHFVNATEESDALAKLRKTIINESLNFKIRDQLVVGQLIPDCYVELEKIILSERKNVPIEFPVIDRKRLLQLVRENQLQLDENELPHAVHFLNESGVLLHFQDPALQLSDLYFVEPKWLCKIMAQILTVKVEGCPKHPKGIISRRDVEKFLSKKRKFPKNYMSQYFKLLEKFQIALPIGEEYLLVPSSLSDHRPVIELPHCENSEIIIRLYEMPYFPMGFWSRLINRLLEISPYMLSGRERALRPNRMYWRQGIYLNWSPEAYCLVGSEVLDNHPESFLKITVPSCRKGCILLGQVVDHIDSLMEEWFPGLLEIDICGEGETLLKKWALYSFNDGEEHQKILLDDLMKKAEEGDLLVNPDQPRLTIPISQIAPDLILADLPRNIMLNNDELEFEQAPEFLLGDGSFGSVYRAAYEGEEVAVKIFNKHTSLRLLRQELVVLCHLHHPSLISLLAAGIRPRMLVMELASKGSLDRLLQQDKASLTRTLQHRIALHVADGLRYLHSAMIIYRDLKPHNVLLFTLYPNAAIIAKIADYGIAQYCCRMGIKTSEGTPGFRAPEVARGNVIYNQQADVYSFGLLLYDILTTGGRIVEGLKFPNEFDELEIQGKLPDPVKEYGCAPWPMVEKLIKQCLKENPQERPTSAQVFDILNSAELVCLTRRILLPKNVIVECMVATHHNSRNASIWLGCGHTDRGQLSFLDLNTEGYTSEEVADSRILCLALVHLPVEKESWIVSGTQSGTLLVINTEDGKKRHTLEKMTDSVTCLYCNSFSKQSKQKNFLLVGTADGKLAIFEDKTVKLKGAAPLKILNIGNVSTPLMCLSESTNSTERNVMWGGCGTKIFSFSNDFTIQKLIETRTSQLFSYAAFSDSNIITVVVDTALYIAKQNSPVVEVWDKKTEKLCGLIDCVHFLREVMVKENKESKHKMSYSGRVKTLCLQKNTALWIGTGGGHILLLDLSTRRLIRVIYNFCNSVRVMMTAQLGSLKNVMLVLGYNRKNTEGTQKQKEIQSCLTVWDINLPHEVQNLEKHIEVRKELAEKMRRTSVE
Method: as §1, §2, §3, §4

FGFR4 = FGFR4 (Homo sapiens, UniProt P22455); assay: Kinase activity inhibition assay (HTRF), FGFR4; type: biochemical; conditions: ATP 50 µM
Chain of FGFR4 (P22455 22-802): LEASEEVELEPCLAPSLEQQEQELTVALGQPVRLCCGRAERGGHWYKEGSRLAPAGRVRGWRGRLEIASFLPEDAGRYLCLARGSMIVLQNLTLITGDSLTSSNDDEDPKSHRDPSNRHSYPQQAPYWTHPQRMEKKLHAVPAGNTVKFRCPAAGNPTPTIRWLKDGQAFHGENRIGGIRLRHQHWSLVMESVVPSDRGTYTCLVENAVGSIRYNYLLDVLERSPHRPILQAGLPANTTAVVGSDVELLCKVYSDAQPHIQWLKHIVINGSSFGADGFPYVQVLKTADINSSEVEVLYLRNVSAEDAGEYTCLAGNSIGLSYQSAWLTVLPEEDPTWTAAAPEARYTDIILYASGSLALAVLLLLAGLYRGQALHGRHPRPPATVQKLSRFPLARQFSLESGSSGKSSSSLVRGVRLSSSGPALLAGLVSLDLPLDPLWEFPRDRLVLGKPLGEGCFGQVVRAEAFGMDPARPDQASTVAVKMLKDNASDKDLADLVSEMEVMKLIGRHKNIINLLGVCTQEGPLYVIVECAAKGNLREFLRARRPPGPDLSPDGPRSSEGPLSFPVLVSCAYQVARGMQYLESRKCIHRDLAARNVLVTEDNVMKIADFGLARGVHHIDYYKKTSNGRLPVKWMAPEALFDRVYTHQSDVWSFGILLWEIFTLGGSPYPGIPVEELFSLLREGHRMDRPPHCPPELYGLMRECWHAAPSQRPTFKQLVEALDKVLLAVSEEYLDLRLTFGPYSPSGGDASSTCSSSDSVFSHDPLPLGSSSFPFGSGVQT
Method: as §1
(§5) Table 1.2-2 HTRF Kinase and Substrate Formulation
(§6) • 1) 2×ATP/substrate solution and 2×kinase/metal ion solution were prepared using kinase reaction buffer; • 2) 20 nL (ADP-GLo) or 40 nL (HTRF) of compound dilution was transferred using Echo 655 onto a 384-well assay plate; after centrifugation, 2 µL of 2×kinase and metal ion solution were added to the 384-well assay plate, centrifuged at 1000 rpm for 1 min, and incubated at 25°C for 10 min; • 3) 2 µL of 2×substrate and ATP solution were added to the 384-well assay plate, centrifuged at 1000 rpm for 1 min, and incubated at 25°C for 60 min. • 4) 4 µL of ADP-Glo was transferred to the 384-well assay plate, entrifuged at 1000 rpm for 1 min, and incubated at 25°C for 40 min. • 5) 8 µL of detection solution was transferred to the 384-well assay plate, centrifuged at 1000 rpm for 1 min, and incubated at 25°C for 40 min. • 6) Luminescence signals was read using a multifunctional microplate reader.
as §4

FGFR4 N535K = FGFR4 N535K (Homo sapiens, UniProt P22455, N535K); assay: Kinase activity inhibition assay (HTRF), FGFR4 N535K; type: biochemical; conditions: ATP 100 µM
Chain of FGFR4 N535K (P22455 22-802 N535K): as the sequence (P22455 22-802) above, with N514K counted along it
Method: as §1, §5, §6, §4

FGFR2 N549H = FGFR2 N549H (Homo sapiens, UniProt P21802, N549H); assay: Kinase activity inhibition assay (HTRF), FGFR2 N549H; type: biochemical; conditions: ATP 9 µM
Method: as §1, §5, §4

FGFR2 = FGFR2 (Homo sapiens, UniProt P21802); assay: Kinase activity inhibition assay (HTRF), FGFR2; type: biochemical; conditions: ATP 20 µM
Method: as §1, §5, §6, §4

DYRK2 = DYRK2 (Homo sapiens, UniProt Q92630); assay: Kinase activity inhibition assay (ADP-Glo), DYRK2; type: biochemical; conditions: ATP 5 µM
Chain of DYRK2 (Q92630 whole entry): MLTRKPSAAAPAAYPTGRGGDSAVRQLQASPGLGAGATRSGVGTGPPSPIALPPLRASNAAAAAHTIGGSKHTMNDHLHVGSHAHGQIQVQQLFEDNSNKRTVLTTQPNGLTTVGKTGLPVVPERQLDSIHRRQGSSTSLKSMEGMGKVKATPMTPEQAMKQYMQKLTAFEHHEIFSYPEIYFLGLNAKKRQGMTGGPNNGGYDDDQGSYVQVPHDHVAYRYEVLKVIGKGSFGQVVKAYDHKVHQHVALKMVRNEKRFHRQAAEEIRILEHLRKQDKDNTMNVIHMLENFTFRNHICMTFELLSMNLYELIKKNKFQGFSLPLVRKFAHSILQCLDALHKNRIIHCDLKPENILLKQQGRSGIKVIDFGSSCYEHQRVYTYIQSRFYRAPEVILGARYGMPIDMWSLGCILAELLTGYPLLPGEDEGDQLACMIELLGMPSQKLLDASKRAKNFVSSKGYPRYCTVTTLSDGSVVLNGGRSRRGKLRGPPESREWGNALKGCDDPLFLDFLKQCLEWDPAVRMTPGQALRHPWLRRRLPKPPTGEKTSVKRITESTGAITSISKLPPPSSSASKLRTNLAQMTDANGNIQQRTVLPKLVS
Method: as §1, §2, §3, §4

FGFR1 = FGFR1 (Homo sapiens, UniProt P11362); assay: Kinase activity inhibition assay (HTRF), FGFR1; type: biochemical; conditions: ATP 40 µM
Method: as §1, §5, §6, §4

FGFR2 V564I = FGFR2 V564I (Homo sapiens, UniProt P21802, V564I); assay: Kinase activity inhibition assay (HTRF), FGFR2 V564I; type: biochemical; conditions: ATP 20 µM
Method: as §1, §5, §6, §4

FLT3 = FLT3 (Homo sapiens, UniProt P36888); assay: Kinase activity inhibition assay (HTRF), FLT3; type: biochemical; conditions: ATP 2 µM
Chain of FLT3 (P36888 27-993): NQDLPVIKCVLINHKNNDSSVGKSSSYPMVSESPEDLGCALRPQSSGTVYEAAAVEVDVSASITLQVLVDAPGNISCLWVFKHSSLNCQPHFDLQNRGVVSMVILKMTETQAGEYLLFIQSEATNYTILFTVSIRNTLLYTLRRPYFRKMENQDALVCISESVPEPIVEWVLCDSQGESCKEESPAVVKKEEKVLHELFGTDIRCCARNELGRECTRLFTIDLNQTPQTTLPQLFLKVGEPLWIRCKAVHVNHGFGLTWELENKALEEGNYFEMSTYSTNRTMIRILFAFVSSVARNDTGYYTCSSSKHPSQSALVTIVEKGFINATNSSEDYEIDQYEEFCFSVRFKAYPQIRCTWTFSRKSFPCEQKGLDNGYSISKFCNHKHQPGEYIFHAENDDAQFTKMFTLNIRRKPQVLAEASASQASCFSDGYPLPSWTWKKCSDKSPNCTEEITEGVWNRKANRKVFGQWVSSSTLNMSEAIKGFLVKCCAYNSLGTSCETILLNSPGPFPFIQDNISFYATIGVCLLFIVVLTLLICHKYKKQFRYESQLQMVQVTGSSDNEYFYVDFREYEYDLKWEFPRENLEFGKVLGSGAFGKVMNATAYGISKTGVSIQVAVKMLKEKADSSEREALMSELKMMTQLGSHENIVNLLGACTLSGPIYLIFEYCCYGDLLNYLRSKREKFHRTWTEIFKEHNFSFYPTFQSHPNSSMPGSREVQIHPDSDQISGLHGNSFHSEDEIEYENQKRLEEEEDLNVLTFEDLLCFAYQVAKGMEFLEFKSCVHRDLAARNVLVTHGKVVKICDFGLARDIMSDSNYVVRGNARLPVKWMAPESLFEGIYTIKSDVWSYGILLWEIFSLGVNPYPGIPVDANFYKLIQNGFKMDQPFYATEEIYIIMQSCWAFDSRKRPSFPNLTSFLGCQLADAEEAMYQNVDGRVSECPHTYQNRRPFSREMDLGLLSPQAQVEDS
Method: as §1, §5, §6, §4

FGFR3 K650M = FGFR3 K650M (Homo sapiens, UniProt P22607, K650M); assay: Kinase activity inhibition assay (HTRF), FGFR3 K650M; type: biochemical; conditions: ATP 12 µM
Method: as §1, §5, §4

FGFR1 V561M = FGFR1 V561M (Homo sapiens, UniProt P11362, V561M); assay: Kinase activity inhibition assay (HTRF), FGFR1 V561M; type: biochemical; conditions: ATP 20 µM
Method: as §1, §5, §6, §4

FLT1 = FLT1 (Homo sapiens, UniProt P17948); assay: Kinase activity inhibition assay (ADP-Glo), FLT1; type: biochemical; conditions: ATP 50 µM
Method: as §1, §2, §3, §6, §4

[1] = Oral pharmacokinetic study in rats; conditions: rat, in vivo, 3 mg/kg, male SD rats, oral gavage, dose 3mpk, 1% MC
Method: Drug preparation: 1% MC was added to the compound, ground, and shaken uniformly. Samples were collected at 5 min, 15 min, 30 min, 1 h, 2 h, 4 h, and 8 h post-dose, followed by analysis using liquid chromatography-tandem mass spectrometry (LC-MS/MS). Table 3 PK Data of Selected Compounds

TYRO3 = TYRO3 (Homo sapiens, UniProt Q06418); assay: Kinase activity inhibition assay (HTRF), TYRO3; type: biochemical; conditions: ATP 0.5 µM
Method: as §1, §5, §4

FGFR4 V550L = FGFR4 V550L (Homo sapiens, UniProt P22455, V550L); assay: Kinase activity inhibition assay (ADP-Glo), FGFR4 V550L; type: biochemical; conditions: ATP 20 µM
Chain of FGFR4 V550L (P22455 22-802 V550L): as the sequence (P22455 22-802) above, with V529L counted along it
Method: as §1, §2, §3, §4

FGFR3 V555M = FGFR3 V555M (Homo sapiens, UniProt P22607, V555M); assay: Kinase activity inhibition assay (HTRF), FGFR3 V555M; type: biochemical; conditions: ATP 20 µM
Method: as §1, §5, §6, §4

KDR = KDR (Homo sapiens, UniProt P35968); assay: Kinase activity inhibition assay (HTRF), KDR; type: biochemical; conditions: ATP 4 µM
Method: as §1, §5, §4

FGFR3 = FGFR3 (Homo sapiens, UniProt P22607); assay: Kinase activity inhibition assay (HTRF), FGFR3; type: biochemical; conditions: ATP 50 µM
Method: as §1, §5, §6, §4

RET V804L = RET V804L (Homo sapiens, UniProt P07949, V804L); assay: Kinase activity inhibition assay (HTRF), RET V804L; type: biochemical; conditions: ATP 5 µM
Method: as §1, §5, §6, §4

FGFR4 V550M = FGFR4 V550M (Homo sapiens, UniProt P22455, V550M); assay: Kinase activity inhibition assay (HTRF), FGFR4 V550M; type: biochemical; conditions: ATP 60 µM
Chain of FGFR4 V550M (P22455 22-802 V550M): as the sequence (P22455 22-802) above, with V529M counted along it
Method: as §1, §5, §4

FGFR3 V555L = FGFR3 V555L (Homo sapiens, UniProt P22607, V555L); assay: Kinase activity inhibition assay (HTRF), FGFR3 V555L; type: biochemical; conditions: ATP 20 µM
Method: as §1, §5, §6, §4

FGFR2 V564F = FGFR2 V564F (Homo sapiens, UniProt P21802, V564F); assay: Kinase activity inhibition assay (HTRF), FGFR2 V564F; type: biochemical; conditions: ATP 15 µM
Method: as §1, §5, §6, §4

FLT4 = FLT4 (Homo sapiens, UniProt P35916); assay: Kinase activity inhibition assay (HTRF), FLT4; type: biochemical; conditions: ATP 32 µM
Method: as §1, §5, §6, §4

Chain of LRRK2 G2019S (Q5S007 whole entry G2019S): as the sequence (Q5S007 whole entry) above, with G2019S counted along it

CN1CCCNc2nc(ncc2C(F)(F)F)Nc2cn(nc2C2CC2)C2CC2C1=O (racemic) [Example T-10, (1^1R,1^2S,2^1R,E)-2^3-Cyclopropyl-9-methyl-4^5-(trifluoromethyl)-2^1H-3,5,9-triaza-4(2,4)-pyrimidina-2(1,4)-pyrazola-1(1,2)-cyclopropacyclodecan-10-one]
inhibition at 0.1 µM (LRRK2 G2019S): 92%
inhibition at 0.1 µM (LRRK2 wt): 94%

O=C1NCCCNc2nc(ncc2C(F)(F)F)Nc2cn(nc2C2CC2)C2CC12 (racemic) [Example T-11, (1^1R,1^2R,2^1S,E)-2^3-Cyclopropyl-4^5-(trifluoromethyl)-2^1H-3,5,9-triaza-4(2,4)-pyrimidina-2(1,4)-pyrazola-1(1,2)-cyclopropacyclodecan-10-one]
inhibition at 0.1 µM (LRRK2 G2019S): 90%
inhibition at 0.1 µM (LRRK2 wt): 89%

C=CC(=O)N[C@H]1CCOC[C@H]1Nc1ncc2cc(-c3c(Cl)c(OC)cc(OC)c3Cl)ccc2n1 [BLU554]
IC50 (FGFR4): 0.00298 µM
IC50 (FGFR4 N535K): 0.0425 µM

CNc1nc(Nc2cn(C(C)(C)C#N)nc2C)ncc1C(F)(F)F [DNL-201]
IC50 (LRRK2 G2019S; ATP 100 µM): 0.00288 µM
IC50 (LRRK2 wt; ATP 20 µM): 0.00127 µM

Cc1nn2cc1Nc1ncc(C(F)(F)F)c(n1)NCCCNC(=O)C2(C)C [Example T-1, (E)-3^3,4,4-Trimethyl-15-(trifluoromethyl)-3^1H-2,6,10-triaza-1(2,4)-pyrimidina-3(4,1)-pyrazolacyclodecan-5-one]
IC50 (FGFR4): 0.0329 µM
IC50 (FGFR2 N549H): 0.0164 µM
IC50 (FGFR2): 0.0218 µM
IC50 (DYRK2): 0.248 µM
IC50 (FGFR1): 0.135 µM
IC50 (FGFR4 N535K): 0.609 µM
IC50 (FGFR2 V564I): 0.0761 µM
IC50 (FLT3): 0.37 µM
IC50 (FGFR3 K650M): 0.0091 µM
IC50 (FGFR1 V561M): 0.0267 µM
IC50 (FLT1): 0.0152 µM
Cmax [1]: 754 ng/mL
Tmax [1]: 1 h
half-life [1]: 2.3 h
AUC(0-t) at 8 h ([1]; read-out: AUC0-8): 3820 ng·h/mL
IC50 (TYRO3): 0.278 µM
IC50 (FGFR4 V550L): 0.0674 µM
IC50 (FGFR3 V555M): 0.0127 µM
IC50 (KDR): 0.0189 µM
IC50 (FGFR3): 0.0502 µM
IC50 (RET V804L): 0.175 µM
IC50 (FGFR4 V550M): 0.126 µM
IC50 (FGFR3 V555L): 0.00509 µM
IC50 (FGFR2 V564F): 0.00822 µM
IC50 (FLT4): 0.0651 µM

Cc1nn2cc1Nc1ncc3c(Cl)cn(c3n1)CCCNC(=O)C2(C)C [Example T-6, (E)-1^5-Chloro-3^3,4,4-trimethyl-1^7H,3^1H-2,6-diaza-1(2,7)-pyrrolo[2,3-d]pyrimidine-3(4,1)-pyrazolacyclononan-5-one]
inhibition at 0.1 µM (LRRK2 G2019S): 88%
inhibition at 0.1 µM (LRRK2 wt): 92%

Cc1nn2cc1Nc1ncc3c(Cl)cn(c3n1)CCCN(C)C(=O)C2(C)C [Example T-7, (E)-1^5-Chloro-3^3,4,4,6-tetramethyl-1^7H,3^1H-2,6-diaza-1(2,7)-pyrrolo[2,3-d]pyrimidine-3(4,1)-pyrazolacyclononan-5-one]
inhibition at 0.1 µM (LRRK2 G2019S): 4.3%
inhibition at 0.3 µM (LRRK2 wt; read-out: LRRK2 wt inhibition rate @300 nM, ATP 20 µM, compound at 300 nM): 7%
